# From patent US5885767A (BioCatalytics, Inc., priority 1998, dated 1999)
# Like-named read-outs stand apart in the source and are kept apart here.
# Tests used:
# methionine gamma-lyase = molecular target: T1, methionine gamma-lyase (Pseudomonas putida, UniProt P13254); settings: cited from earlier work; for inhibition of methionine gamma-lyase (in words): at concentrations between 0.1 mM and 10 mM
# T1 sequence (P13254 1-398): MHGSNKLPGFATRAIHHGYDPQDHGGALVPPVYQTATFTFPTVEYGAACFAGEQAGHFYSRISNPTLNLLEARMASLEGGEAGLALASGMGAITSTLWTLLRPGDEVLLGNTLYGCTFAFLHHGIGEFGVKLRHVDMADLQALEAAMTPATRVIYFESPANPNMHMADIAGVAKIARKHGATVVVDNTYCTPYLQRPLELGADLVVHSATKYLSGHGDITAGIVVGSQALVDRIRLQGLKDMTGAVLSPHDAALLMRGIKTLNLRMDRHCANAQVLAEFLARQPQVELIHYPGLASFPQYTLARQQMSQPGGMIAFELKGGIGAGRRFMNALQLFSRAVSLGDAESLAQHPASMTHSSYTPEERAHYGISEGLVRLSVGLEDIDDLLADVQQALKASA
# [1] = molecular target: T2, methionine gamma-lyase from Pseudomonas putida ICR 3460 (Pseudomonas putida, UniProt P13254); design: methionine gamma-lyase purified from Pseudomonas putida ICR 3460; host or cells: Pseudomonas putida ICR 3460 (enzyme purified from the organism itself); settings: cited from earlier work; for Vmax as a substrate for methionine gamma-lyase: maximum velocity at saturating substrate concentrations; for Km / Vmax: purified enzyme from Pseudomonas putida ICR 3460
# T2 sequence (P13254 1-398): T1 sequence (P13254 1-398)
# [2] = molecular target: T2, methionine gamma-lyase from Pseudomonas putida ICR 3460
# Procedure: The 2-ketobutyrate produced in the reaction is quantitated by reaction with lactic dehydrogenase and NADH, and the rate of decrease in the absorbance at 340 nm is monitored.
# Stock solutions for the coupled spectrophotometric assay are prepared as follows:
# Potassiumphosphate buffer, 100 mM, pH 8.0 containing 0.01 mM pyridoxal 5'-phosphate
# NADH in deionized water, 5 mg/ml
# Lactate dehydrogenase, crystalline suspension from rabbit muscle in 3.2M ammonium sulfate containing 9.6 mg protein/ml, with a specific activity of 800-1200 units per milligram (Sigma)
# The assay mixture is prepared as follows:
# A background reading of the absorbance at 340 nm was made. Enzyme solution (10 microliters, appropriately diluted to produce a change of absorbance at 340 nm between 0.1 and 1 absorbance unit per minute) is then added, and the rate of decrease in the absorbance at 340 nm is measured using a spectrophotometer.
# One unit of methionine gamma-lyase activity is that amount of enzyme that causes the oxidation of 1 micromole of NADH per minute at room temperature under the assay conditions described above.
smiles,measurement,setting,value
C[C@@H](O)[C@H](N)C(=O)O [L-Threonine],inhibition of methionine gamma-lyase (in words),methionine gamma-lyase,Nor do these amino acids inhibit methionine gamma-lyase appreciably
same,activity as a substrate of methionine gamma-lyase (in words),[1],either very poor substrates or do not react at all
N[C@@H](CS)C(=O)O [L-cysteine],activity as a substrate of methionine gamma-lyase (in words),[1],low activity
N[C@@H](CCS)C(=O)O [L-homocysteine],activity of the purified methionine gamma-lyase,[2]; L-homocysteine as substrate at a concentration of 2.5 mM,approximately 36 units per milligram
same,activity as a substrate of methionine gamma-lyase (in words),[1],excellent substrates
same,Vmax as a substrate for methionine gamma-lyase,[1],36 micromoles per minute per milligram of pure protein
same,Km,[1],≤ 1000 µM
same,Vmax,[1],36 µmol/min/mg
same,Km,[1]; listed as L-Homocysteine,430 µM
N[C@@H](CCO)C(=O)O [L-homoserine],inhibition of methionine gamma-lyase (in words),methionine gamma-lyase,Nor do these amino acids inhibit methionine gamma-lyase appreciably
same,activity as a substrate of methionine gamma-lyase (in words),[1],either very poor substrates or do not react at all
CSCC[C@H](N)C(=O)O [L-methionine],specific activity of purified methionine gamma-lyase,"[2]; L-methionine as substrate, room temperature, pH 8.0, 1 unit = 1 micromole NADH oxidized per minute",approximately 20 units per milligram
same,activity as a substrate of methionine gamma-lyase (in words),[1],excellent substrates
same,Vmax as a substrate for methionine gamma-lyase,[1],about 20 micromoles per minute per milligram of pure protein
same,Km,[1],≤ 1000 µM
same,Vmax,[1],20.4 µmol/min/mg
same,Km,[1]; listed as L-Methionine,1000 µM
N[C@@H](CO)C(=O)O [L-serine],inhibition of methionine gamma-lyase (in words),methionine gamma-lyase,Nor do these amino acids inhibit methionine gamma-lyase appreciably
same,activity as a substrate of methionine gamma-lyase (in words),[1],either very poor substrates or do not react at all
N[C@@H](Cc1c[nH]c2ccccc12)C(=O)O [L-tryptophan],inhibition of methionine gamma-lyase (in words),methionine gamma-lyase,Nor do these amino acids inhibit methionine gamma-lyase appreciably
same,activity as a substrate of methionine gamma-lyase (in words),[1],either very poor substrates or do not react at all
N[C@@H](Cc1ccc(O)cc1)C(=O)O [L-tyrosine],inhibition of methionine gamma-lyase (in words),methionine gamma-lyase,Nor do these amino acids inhibit methionine gamma-lyase appreciably
same,activity as a substrate of methionine gamma-lyase (in words),[1],either very poor substrates or do not react at all
O[C@H](CS)[C@@H](O)CS [dithioerythritol],inhibition of methionine gamma-lyase by thiol compounds (in words),methionine gamma-lyase,nor do they inhibit the enzyme
same,activity as a substrate of methionine gamma-lyase (in words),[1],not acted on by the enzyme
O[C@H](CS)[C@H](O)CS [dithiothreitol],inhibition of methionine gamma-lyase by thiol compounds (in words),methionine gamma-lyase,nor do they inhibit the enzyme
same,activity as a substrate of methionine gamma-lyase (in words),[1],not acted on by the enzyme
CC(=O)S [thioacetic acid],inhibition of methionine gamma-lyase by thiol compounds (in words),methionine gamma-lyase,nor do they inhibit the enzyme
same,activity as a substrate of methionine gamma-lyase (in words),[1],not acted on by the enzyme
OCCS [β-mercaptoethanol],inhibition of methionine gamma-lyase by thiol compounds (in words),methionine gamma-lyase,nor do they inhibit the enzyme
same,activity as a substrate of methionine gamma-lyase (in words),[1],not acted on by the enzyme
